Data on eleven compounds can be found in PubChem BioAssay (NCI).

Among the test systems are IGROV1 ovarian; HCT-116 colon; NCI-H522 lung; OVCAR-8 ovarian; SK-OV-3 ovarian; A549 NSCLC; NCI-H23 lung; SK-MEL-28 melanoma; COLO 205 colon.
Experiment in all cases: DTP human tumour cell line panel, 48 h

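Assay format: 96-well plates, 48-hour exposure. GI50 marks 50% less growth. TGI: concentration producing complete growth inhibition.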

As for `BrC1=CC=C2NCCCCCCN=C3C=CC(Br)=CC=C3NCCCCCCN=C2C=C1`, the total growth inhibition concentration (TGI) in the experiment on IGROV1 ovarian, in the experiment with HCT-116 colon, in the experiment with NCI-H522 lung, with OVCAR-8 ovarian, in the experiment with SK-OV-3 ovarian and in the experiment on A549 NSCLC was above 25.5 µM each time. Besides, the TGI in the experiment with NCI-H23 lung and with SK-MEL-28 melanoma was above 25.5 µM in each case.
Consider `CC1(C)CC(=O)C(=[N+]=[N-])C(=O)C1`, for which the total growth inhibition concentration (TGI) in the experiment on IGROV1 ovarian, in the experiment on HCT-116 colon, in the experiment with NCI-H522 lung, in the experiment with SK-OV-3 ovarian, with A549 NSCLC and with NCI-H23 lung was above 100 µM each time. Moreover, the total growth inhibition concentration (TGI) with COLO 205 colon and in the experiment with SK-MEL-28 melanoma was above 100 µM each time.
In the case of `c1cc[c]([Sn]([S]c2cccc3cccnc23)([S]c2cccc3cccnc23)[c]2ccccc2)cc1`, the GI50 in the experiment with IGROV1 ovarian is 0.267 µM; with HCT-116 colon, 0.175 µM; in the experiment on OVCAR-8 ovarian it was 0.25 µM; in the experiment with SK-OV-3 ovarian, 0.588 µM; in the experiment on A549 NSCLC it was 0.363 µM; in the experiment with NCI-H23 lung, 0.198 µM. For the same compound, the GI50 is 0.136 µM with COLO 205 colon and 0.196 µM in the experiment on SK-MEL-28 melanoma. For the same compound, the TGI in the experiment on IGROV1 ovarian was 0.789 µM; in the experiment with HCT-116 colon, 0.324 µM; with OVCAR-8 ovarian, 0.895 µM; in the experiment with SK-OV-3 ovarian, 2.07 µM; in the experiment with A549 NSCLC, 1.38 µM; in the experiment with NCI-H23 lung it was 0.46 µM. For the same compound, the concentration for total growth inhibition (TGI) is 0.298 µM with COLO 205 colon and 0.532 µM in the experiment with SK-MEL-28 melanoma.
Consider `CC(C(=O)c1ccc(Cl)cc1)C1OC(=O)C(Cl)=C1Cl` (centres undefined), for which the TGI is above 100 µM with IGROV1 ovarian; 37.7 µM with NCI-H522 lung; above 100 µM with OVCAR-8 ovarian; above 100 µM in the experiment with SK-OV-3 ovarian; above 100 µM in the experiment with A549 NSCLC; 71.1 µM in the experiment with NCI-H23 lung. In addition, the TGI with COLO 205 colon is 51 µM; with SK-MEL-28 melanoma, 57.1 µM.
Regarding `COC(=O)OCc1ccc2c(c1)C(=O)c1c-2n(CCCBr)c(=O)c2cc([N+](=O)[O-])ccc12`, the GI50 in the experiment with IGROV1 ovarian was 54.3 µM; in the experiment on HCT-116 colon it was 81.2 µM; in the experiment with NCI-H522 lung, above 100 µM; in the experiment with OVCAR-8 ovarian it was above 100 µM; in the experiment on SK-OV-3 ovarian it was 31.1 µM; in the experiment with A549 NSCLC it was above 100 µM. For the same compound, the GI50 in the experiment on COLO 205 colon and in the experiment with SK-MEL-28 melanoma was above 100 µM in each case. Besides, the TGI in the experiment with IGROV1 ovarian, in the experiment on HCT-116 colon, with NCI-H522 lung, with OVCAR-8 ovarian, in the experiment on SK-OV-3 ovarian and with A549 NSCLC was above 100 µM in each case. In addition, the TGI in the experiment with COLO 205 colon and in the experiment on SK-MEL-28 melanoma was above 100 µM in each case.
Consider `N#C/C(N)=C(\C#N)N=Cc1csc2ccccc12`, for which the GI50 in the experiment on IGROV1 ovarian was 15.8 µM; in the experiment with HCT-116 colon, 26.8 µM; in the experiment on NCI-H522 lung, 28.9 µM; in the experiment with OVCAR-8 ovarian, 20.8 µM; in the experiment with SK-OV-3 ovarian, 20.2 µM; in the experiment with A549 NSCLC, 45.4 µM. The figures for the GI50 with NCI-H23 lung, in the experiment on COLO 205 colon and with SK-MEL-28 melanoma were 11.5 µM, 72.3 µM and 37.5 µM, respectively. The TGI in the experiment on IGROV1 ovarian was 67.2 µM; in the experiment with HCT-116 colon, 83.6 µM; in the experiment with NCI-H522 lung it was above 100 µM; in the experiment on OVCAR-8 ovarian, 55.7 µM; in the experiment on SK-OV-3 ovarian it was 46 µM; with A549 NSCLC, above 100 µM. Besides, the TGI is 51.2 µM in the experiment with NCI-H23 lung, above 100 µM with COLO 205 colon and above 100 µM in the experiment with SK-MEL-28 melanoma.
As for `CCCCN(CCCC)C(=O)C(=O)C(C)C(=O)CC` (centres undefined), the TGI in the experiment with IGROV1 ovarian, with NCI-H522 lung, in the experiment with OVCAR-8 ovarian, with SK-OV-3 ovarian, in the experiment with A549 NSCLC and in the experiment on NCI-H23 lung was above 100 µM throughout. In addition, the TGI in the experiment with COLO 205 colon and with SK-MEL-28 melanoma was above 100 µM each time.
In the case of `Oc1c(I)cc(-c2nc3ccccc3s2)cc1CN(Cc1ccccn1)Cc1ccccn1`, the GI50 in the experiment with IGROV1 ovarian is 0.517 µM; in the experiment on HCT-116 colon it was 0.494 µM; in the experiment with NCI-H522 lung, 0.415 µM; in the experiment on OVCAR-8 ovarian, 0.335 µM; with SK-OV-3 ovarian, 0.437 µM; in the experiment on A549 NSCLC, 0.427 µM. For the same compound, the GI50 in the experiment with NCI-H23 lung is 0.866 µM; in the experiment on COLO 205 colon, 0.352 µM; in the experiment with SK-MEL-28 melanoma it was 0.411 µM. Besides, the concentration for total growth inhibition (TGI) with IGROV1 ovarian is 9.06 µM; in the experiment on HCT-116 colon it was 12.4 µM; in the experiment on NCI-H522 lung, 14.4 µM; in the experiment with OVCAR-8 ovarian, 37.5 µM; in the experiment with SK-OV-3 ovarian, above 100 µM; in the experiment with A549 NSCLC, above 100 µM. Further, the results for the TGI with NCI-H23 lung, in the experiment with COLO 205 colon and in the experiment on SK-MEL-28 melanoma were above 100 µM, 20.7 µM and 43 µM, respectively.
Take `CCCCCCC#CC#Cc1cccc(=O)o1`: the GI50 in the experiment with IGROV1 ovarian is 2.35 µM; with HCT-116 colon, 0.985 µM; with NCI-H522 lung, 1.8 µM; in the experiment with OVCAR-8 ovarian, 1.14 µM; in the experiment on SK-OV-3 ovarian, 23.8 µM; with A549 NSCLC it was 9.24 µM. The GI50 in the experiment on NCI-H23 lung was 0.848 µM; in the experiment on COLO 205 colon it was 9.5 µM; in the experiment on SK-MEL-28 melanoma, 3.22 µM. The TGI in the experiment with HCT-116 colon was 2.34 µM; with NCI-H522 lung, 27.8 µM; in the experiment with OVCAR-8 ovarian, 5.47 µM; in the experiment with SK-OV-3 ovarian, above 70 µM; in the experiment with A549 NSCLC, 30.7 µM; in the experiment with NCI-H23 lung, 2.25 µM. Besides, the results for the concentration for total growth inhibition (TGI) in the experiment with COLO 205 colon and in the experiment on SK-MEL-28 melanoma were 20 µM and 10.7 µM, respectively.
On to `c1ccc2cc(Cn3c[n+](Cc4ccc5ccccc5c4)c4ccccc43)ccc2c1`, for which the GI50 in the experiment with SK-OV-3 ovarian was 1.67 µM; in the experiment with A549 NSCLC it was 1.87 µM; in the experiment on SK-MEL-28 melanoma, 1.52 µM. Also, the TGI was determined as 3.4 µM in the experiment on SK-OV-3 ovarian, 3.88 µM with A549 NSCLC and 3.11 µM in the experiment on SK-MEL-28 melanoma.
For `CCCCCCNc1nc(N2CCOCC2)c2[nH]c(NCCCCCC)nc2n1`, the GI50 is 1.83 µM in the experiment on HCT-116 colon; 1.58 µM with NCI-H522 lung; 1.77 µM in the experiment with OVCAR-8 ovarian; 1.73 µM in the experiment with SK-OV-3 ovarian; 1.69 µM in the experiment on A549 NSCLC; 1.35 µM with NCI-H23 lung. The values for the GI50 in the experiment on COLO 205 colon and with SK-MEL-28 melanoma were 1.89 µM and 1.65 µM, respectively. In addition, the concentration for total growth inhibition (TGI) in the experiment on HCT-116 colon stood at 3.27 µM; in the experiment on NCI-H522 lung it was 3.37 µM; with OVCAR-8 ovarian, 3.74 µM; with SK-OV-3 ovarian, 3.14 µM; in the experiment on A549 NSCLC, 3.38 µM; in the experiment with NCI-H23 lung, 2.63 µM. Besides, the values for the total growth inhibition concentration (TGI) in the experiment with COLO 205 colon and in the experiment on SK-MEL-28 melanoma were 3.6 µM and 3.01 µM, respectively.
